Test results reported in patent US5250542A, “Peripherally selective piperidine carboxylate opioid antagonists” (Eli Lilly and Company, priority 1992, dated 1993).
Structures can show the parent of a compound that is named as a salt. Where two headings read alike, the source gives them in different places.

Legend:
[1] = molecular target: T1, peripheral opioid receptors (Mus musculus, UniProt P42866); assay: precipitated diarrhea in morphine-maintained mice (peripheral opioid activity) and comparison with the writhing test; format: in vivo; settings: for Ratio (AD50 mouse writhing test / ED50 mouse diarrhea test): higher ratio = greater relative antagonism of peripheral opioid receptors; for ED50: mouse, 0.5 h, morphine-maintained mice, antagonist subcutaneous or oral, 30 min observation
T1 construct: Mice maintained (6 mice/cage) on 0.01M saccharin water with 1 g/1 morphine sulfate; from tissue; host or cells: living morphine-maintained mice (in vivo test; endogenous receptor)
Experimental: Determinations of peripheral opioid activity were conducted. Mice maintained (6 mice/cage) on 0.01M saccharin water with 1 g/1 morphine sulfate for a minimum of 10 days with mice averaging 3.0^+ g water/mouse/day for at least three days are used as subjects. The morphine water was removed 45 min. prior to injection with the proposed opioid antagonist. Initial testing consisted of 5 mice/dose of compound. The antagonist was given by the subcutaneous or oral, route of administration,and the mice were placed in 11-14"×4 7/12 I.D. clear plastic cylinders with white paper towels used for a floor.
The mice were then monitored visually for 30 minutes post-injection for the presence of jumping and of diarrhea. Jumping was scored as positive if at least one jump occurred in 30 min. Diarrhea was scored as positive when feces were moist enough to stain the white paper at the base of the cylinder. After 30 minutes of testing, the mice were placed back in original cages, put back on morphine water, and not tested again for 48 hrs. Lower doses of the antagonist compounds were tested until threshold doses for diarrhea were determined. Diarrhea is a peripherally mediated sign of precipitated opiate abstinence.
The extent of the effect on peripheral activity compared to central activity of the present compounds can-be determined by comparing the AD50 for the mouse writhing test with the ED50 for the mouse diarrhea test. The higher the ratio, the greater the relative antagonism of the peripheral opioid receptors by a particular compound.

mu receptor = molecular target: T2, mu receptor (Rattus norvegicus, UniProt P33535); assay: opioid receptor binding assay, [3H] NAL (tritiated naloxone), mu receptor; parameters: species or system rat (Male Sprague Dawley), brain minus cerebellum; settings: for inhibition at 0.01 µM / inhibition at 0.1 µM: 20 min
T2 construct: rat whole brain minus cerebellum for mu was homogenized; from tissue; host or cells: brain of male Sprague Dawley rats, whole brain minus cerebellum, homogenate fraction
Experimental: This assay was conducted by the following procedure.
Male Sprague Dawley rats for mu site experiments were sacrificed via decapitation and the brains were removed. The brain tissue, rat whole brain minus cerebellum for mu was homogenized in a Teflon and glass tissue homogenizer. A supernatant I, pellet IV, fraction was frozen in a nitrogen freezer at 1.33 g/ml concentration and stored for not longer than five weeks prior to use. Pellets were rehydrated with physiological buffer prior to use.
The reaction was initiated by the addition of the resuspended tissue which had been preincubated at 37° C. for 20 minutes. The reaction mixture was incubated in a 37° C. water bath for 20 minutes. The reaction was terminated by rapid filtration, (Brandel Cell Harvestor), through Whatman GF/B glass filters that had been presoaked in Krebs-Hepes buffer pH 7.4. The filters were then washed 2x with 5 ml of ice cold Krebs-Hepes buffer pH 7.4. Washed filters were placed in scintillation vials and 10 ml RedySolv, (Brandel), was added and samples counted in a Searle D-300 beta counter. Means and standard error statistics were calculated for triplicate experimental determinations in certain cases. The incubation time for the reaction mixture was 20 minutes at 37° C.
Ki values were calculated using a minitab statistical program according to the following formula: [formula] wherein IC50 is the concentration at which 50% of the ^3 H ligand is displaced by the test compounds and KD is the dissociation constant for the ^3 H ligand at the receptor site. KD can be determined as described by Bennett, "Methods in Binding Studies", Neurotransmitter Receptor Binding, Yamamura, et al., ed., p. 57-90, Raven Press, N.Y. (1978) incorporated herein by reference.
In the Table, column 1 sets forth the Example Number of the compound evaluated, column 2 the Ki value in nanomolar (nM) at the mu receptor and columns 3 and 4 the percent displacement by the test compound at the indicated concentration, i.e., 10 nm or 100 nm.

opioid receptor = molecular target: T3, opioid receptor (Mus musculus, UniProt P42866); assay: mouse writhing analgesis test: block of morphine-induced analgesia; format: in vivo, CF-1 male mice; parameters: unit not given here; settings: dose of antagonist that reduced the inhibition of writhing produced by 1.25 mg/kg morphine sulfate to 50%; subcutaneous, 20 min before acetic acid
T3 construct: Five CF-1 male mice (Charles River, Portage, Mich.); from tissue; host or cells: living CF-1 male mice (in vivo test; endogenous receptor)
Experimental: In order to determine in vivo opioid receptor antagonism, the mouse writhing analgesis test was used. Test compounds were measured for their ability to block morphine-induced analgesia.
Five CF-1 male mice (Charles River, Portage, Mich.), weighing approximately 20 g after being fasted overnight, were observed simultaneously for the writhing response. The writhing response was defined as a contraction of the abdominal musculature, followed by the extension of the hind limbs, and was induced by the intraperitoneal adminstration of 0.6% acetic acid in a volumne of 1 ml/100 g body weight. The observation period was 10 min. in duration, beginning 5 min. after injection of acetic acid. The percent inhibition of writhing was calculated from the average number of writhes in the control (non-drug) group. Each data point is the mean (±standarderror) for five mice. The ED50 was defined as the dose of agonist that inhibited mean writhing by 50%. […] Each mouse was only used once. All drugs were administered subcutaneously (1 ml/100 g bwt) 20 min. before the injection of acetic acid.

[2] = read-out: % displacement at 10 nM, 10 nM test compound, [3H] naloxone 0.5 nM
[3] = read-out: % displacement at 100 nM, 100 nM test compound, [3H] naloxone 0.5 nM
[4] = read-out: % displacement at 100 nM

T2 sequence (P33535 whole entry): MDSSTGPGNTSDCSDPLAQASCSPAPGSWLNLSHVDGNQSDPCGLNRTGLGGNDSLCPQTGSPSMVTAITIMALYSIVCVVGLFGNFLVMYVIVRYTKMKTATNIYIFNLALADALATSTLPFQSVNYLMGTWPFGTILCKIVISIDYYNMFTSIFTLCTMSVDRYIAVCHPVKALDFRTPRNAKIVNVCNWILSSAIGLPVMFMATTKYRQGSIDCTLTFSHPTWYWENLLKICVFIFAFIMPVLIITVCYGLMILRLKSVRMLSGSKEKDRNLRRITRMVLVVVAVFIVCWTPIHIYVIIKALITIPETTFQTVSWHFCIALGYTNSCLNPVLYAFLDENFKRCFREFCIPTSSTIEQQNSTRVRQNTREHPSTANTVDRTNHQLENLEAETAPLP
T3 sequence (P42866 whole entry): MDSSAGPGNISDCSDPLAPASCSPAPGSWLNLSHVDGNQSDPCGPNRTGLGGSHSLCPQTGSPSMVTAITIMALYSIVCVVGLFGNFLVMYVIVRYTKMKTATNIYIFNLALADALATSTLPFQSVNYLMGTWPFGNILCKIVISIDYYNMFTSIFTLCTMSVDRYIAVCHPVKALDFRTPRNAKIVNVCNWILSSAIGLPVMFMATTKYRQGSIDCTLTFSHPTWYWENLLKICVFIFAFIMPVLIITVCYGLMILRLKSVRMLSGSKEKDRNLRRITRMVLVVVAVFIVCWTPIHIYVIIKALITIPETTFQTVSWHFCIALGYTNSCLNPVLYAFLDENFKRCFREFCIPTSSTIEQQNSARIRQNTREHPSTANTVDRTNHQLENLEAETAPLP
T1 sequence (P42866 whole entry): as above

SMILES	Ratio (AD50 mouse writhing test / ED50 mouse diarrhea test) [1]	ED50 [1] [mg/kg]	Ki (mu receptor) [nM]	inhibition at 0.01 µM (mu receptor; [2]) [%]	inhibition at 0.1 µM (mu receptor; [3]) [%]	AD50 (opioid receptor)	inhibition at 0.1 µM (mu receptor; [4]) [%]	inhibition at 0.01 µM (mu receptor; 10 nM test compound, [3H] naloxone 0.5 nM, read-out: % displacement at 10 nM) [%]	inhibition at 0.1 µM (mu receptor; 100 nM test compound, [3H] naloxone 0.5 nM, read-out: % displacement at 100 nM) [%]
C[C@H]1CN(CCC(C(=O)NCCCC(=O)O)C2CCCCC2)CC[C@@]1(C)c1cccc(O)c1 (relative stereo) [Example 28, 4-[[2-cyclohexyl-4-[4-(3-hydroxyphenyl)-3,4-dimethyl-1-piperidinyl]-1-oxobutyl]amino]-butanoic acid monohydrate]	> 4000	0.01	3.09	86	95	> 40			
CCOC(=O)CNC(=O)C(CC1CCCCC1)CN1CC[C@@](C)(c2cccc(O)c2)[C@@H](C)C1 (relative stereo) [Example 29, 2-[[3-[4-(3-hydroxyphenyl-3,4-dimethyl-1-piperidinyl]-2-cyclohexylmethyl-1-oxopropyl]amino]acetic acid ethyl estermonohydrochloride]	23	0.17	2.94	98	100	3.9			
C[C@H]1CN(CC(CC2CCCCC2)C(=O)NCC(=O)O)CC[C@@]1(C)c1cccc(O)c1 (relative stereo) [Example 30, 2-[[3-[4-(3-hydroxyphenyl)-3,4-dimethyl-1-piperidinyl]-2-(cyclohexylmethyl)-1-oxopropyl]-amino]acetic acid monohydrate]	> 2353	0.017	0.42	89	93	> 40			
CCNC(=O)CNC(=O)C(CC1CCCCC1)CN1CC[C@@](C)(c2cccc(O)c2)[C@@H](C)C1 (relative stereo) [Example 31, N-ethyl-2-[[3-[4-(3-hydroxyphenyl)-3,4-dimethyl-1-piperidinyl]-2-(cyclohexylmethyl)-1-oxo-propyl]amino]acetamide monohydrochloride monohydrate]	38	0.14	0.4	100		5.3	97		
CNC(=O)CNC(=O)C(CC1CCCCC1)CN1CC[C@@](C)(c2cccc(O)c2)[C@@H](C)C1 (relative stereo) [Example 32, N-[2-methylamino-2-oxoethyl]-3-[4-(3-hydroxphenyl)-3,4-dimethyl(-1-piperidinyl]-2-cyclohexylmethylpropanamidemonohydrochloride]	45	0.16	0.72	97	100	7.3			
C[C@H]1CN(CC(CC2CCCCC2)C(=O)NCC(N)=O)CC[C@@]1(C)c1cccc(O)c1 (relative stereo) [Example 33, 2-[[3-[4-(3-hydroxyphenyl)-3,4-dimethyl-1-piperidinyl]-2-(cyclohexylmethyl)-1-oxophenyl]amino]acetamide monohydrochloride]	60	0.17	1.19	95	100	10.2			
C[C@H]1CN(CC(CC2CCCCC2)C(=O)NCCC(=O)OCc2ccccc2)CC[C@@]1(C)c1cccc(O)c1 (relative stereo) [Example 34, 3-[[2-(cyclohexylmethyl)-1-oxo-3-[4-(3-hydroxyphenyl)-3,4-dimethyl-1-piperidinyl]propyl]-amino]propanoic acid phenylmethyl ester monohydrochloride]	84	0.18	36.6	78		15.1	97		
C[C@H]1CN(CC(Cc2ccccc2)C(=O)N(C)CC(=O)O)CC[C@@]1(C)c1cccc(O)c1 (relative stereo) [Example 66, [[2-[[4-(3-hydroxyphenyl)-3,4-dimethyl-1-piperidinyl]methyl]-1-oxo-3-phenylpropyl]-methylamino]acetic acid monohydrate]	< 4.7	< 3	1.96	70	85	14.0			
CCOC(=O)CNC(=O)CNC(=O)C(Cc1ccccc1)CN1CC[C@@](C)(c2cccc(O)c2)[C@@H](C)C1 (relative stereo) [Example 67, [[2-[2-[4-(3-hydroxyphenyl)-3,4-dimethyl-1-piperidinyl]methyl]-3-phenyl-1-oxopropyl]-amino]acetyl]amino]acetic acid ethyl ester monohydrochloride]	36	0.15	0.37	79	91	5.5			
C[C@H]1CN(CC(Cc2ccccc2)C(=O)NCC(=O)NCC(=O)O)CC[C@@]1(C)c1cccc(O)c1 (relative stereo) [Example 68, N-(carboxylmethyl-)-2-[[3-[4-(3-hydroxyphenyl)-3,4-dimethyl-1-piperidinyl]-2-(phenylmethyl)-1-oxopropyl]amino]acetamide monohydrate]	> 174	0.23	1.51	79	86	> 40			
C[C@H]1CN(CC(Cc2ccccc2)C(=O)NCCN(C)C)CC[C@@]1(C)c1cccc(O)c1 (relative stereo) [Example 69, N-[2-(dimethylamino)ethyl]-3-[4-(3-hydroxyphenyl)-3,4-dimethyl-1-piperidine]-2-phenylmethylpropanamide dihydrochloride]	51	1.7				30		57	89
CCc1noc(CNC(=O)C(Cc2ccccc2)CN2CC[C@@](C)(c3cccc(O)c3)[C@@H](C)C2)n1 (relative stereo) [Example 71, 3-[4-(3-hydroxyphenyl)-3,4-dimethyl1-piperidinyl]-2-(phenylmethyl)-N-[(3-ethyl-1,2,4-oxadiazol-5-yl)methyl]propanamide]	11	0.19	0.71	81		2.1	94		
